According to US9951060B2, “2-acylaminothiazole derivative or salt thereof” (ASTELLAS PHARMA INC., priority 2014, dated 2018):
Where a name gives a salt, the structure may show the parent alone.

These molecules were tested against human muscarinic M3 receptor (Homo sapiens, UniProt P20309) (assay: Test Example 1: muscarinic M3 receptor positive allosteric modulator activity (shift of carbachol concentration-response curve, intracellular Ca2+, FLIPR)). Conditions: test substance 1 μM; carbachol EC50 without / with test substance; CHO-K1 cells expressing human M3.
human muscarinic M3 receptor, sequence (P20309 whole entry): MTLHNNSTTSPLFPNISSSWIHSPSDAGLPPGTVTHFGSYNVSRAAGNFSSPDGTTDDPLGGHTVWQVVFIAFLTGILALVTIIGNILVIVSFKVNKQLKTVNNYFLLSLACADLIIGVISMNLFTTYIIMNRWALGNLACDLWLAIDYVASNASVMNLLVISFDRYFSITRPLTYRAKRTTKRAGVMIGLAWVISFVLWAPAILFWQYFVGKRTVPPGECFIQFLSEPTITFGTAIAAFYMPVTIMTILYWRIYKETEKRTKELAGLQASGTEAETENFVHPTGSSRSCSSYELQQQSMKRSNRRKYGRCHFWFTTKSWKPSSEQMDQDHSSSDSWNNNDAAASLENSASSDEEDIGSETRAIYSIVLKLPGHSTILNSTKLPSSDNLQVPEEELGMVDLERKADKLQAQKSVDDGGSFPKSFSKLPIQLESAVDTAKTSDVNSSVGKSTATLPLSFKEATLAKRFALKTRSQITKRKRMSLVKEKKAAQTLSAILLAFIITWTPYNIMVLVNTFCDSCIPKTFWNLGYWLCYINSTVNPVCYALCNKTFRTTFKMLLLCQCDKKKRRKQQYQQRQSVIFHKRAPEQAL
Excerpt: Test Example 1: Evaluation of Muscarinic M3 Receptor Positive Allosteric Modulator Activity
a) Construction of Vector Expressing Human Muscarinic M3 Receptor
A human muscarinic M3 receptor gene (GenBank Accession No.: NM_000740.2) was introduced into an expression vector pcDNA3.1™ (Life Technologies).
b) Construction of Cells Stably Expressing Human Muscarinic M3 Receptor
A vector expressing a human muscarinic M3 receptor was introduced into a CHO—K1 cell (ATCC No.: CCL-61). The introduction was carried out according to the attached instructions, using a transfection reagent, Lipofectoamine (registered trademark) 2000 Reagent (Life Technologies). The cells were incubated in an alpha Modified Eagle Minimum Essential Medium (α-MEM) including 2 mM glutamine, 10% fetal bovine serum, and 2.0 mg/mL Geneticin (registered trademark) (Life Technologies) for 4 weeks to acquire a drug-resistant clone.
c) Measurement of Intracellular Ca^2+ Concentration
The cells obtained in b) above were suspended in an α-MEM including 2 mM glutamine, 10% fetal bovine serum, and 0.2 mg/mL Geneticin (registered trademark) to the amount from 1.2 to 1.5×10^4 cells/well the day before the experiment, dispensed into a 384-well plate (Model No. 355962, BD Biosciences), and incubated overnight at 37° C. and 5% CO2. The medium was replaced with a loading buffer (an assay buffer (Hank's balanced salt solution (HBSS), 1 g/L BSA, 20 mM HEPES (pH 7.5), and 2.5 mM probenecid), including 3.1 μM Fluo 4-AM (Dojindo Laboratories) and incubated for about 2 hours at room temperature. Thereafter, the cells were washed with a plate washer ELx405™ (BIO-TEK Instrument, Inc.) set with the assay buffer, and set in an intracellular Ca^2+ concentration measuring system (FLIPR^tetra (registered trademark), Molecular Device Co.). The test substances (final concentration of 1 μM or 10 μM) and carbachol (Sigma, final concentration of 0.0024 nM to 10 μM) which had each been dissolved in the assay buffer in advance were set in a FLIPR^tetra (registered trademark). The test substances were added to the cells in the device and after about 5 minutes, carbachol was added to the cells. An increase rate of the intracellular Ca^2+ concentration by carbachol was measured (excitement wavelength of 470 nm to 495 nm and a fluorescence wavelength of 515 nm to 575 nm).
For the muscarinic M3 receptor-positive allosteric modulator activity, a shift toward a lower concentration side of a carbachol concentration-response curve by the test substance was used as an index. […] For example, when the EC50 value of carbachol in the absence of the test substance was 0.1 μM and the EC50 value of carbachol in the presence of the test substance was 0.01 μM, the value of the muscarinic M3 receptor-positive allosteric modulator activity becomes 10, showing that the test substance causes a 10-fold shift in the EC50 value toward to the low concentration side.

Compound | muscarinic M3 receptor-positive allosteric modulator activity, 1 μM (-fold shift)
C[C@@H]1CCCN1Cc1sc(NC(=O)c2cnc(N3CCN(CCC(=O)[O-])CC3)cn2)nc1-c1cc(C#N)cc(C(F)(F)F)c1.[Na+] [Example 34] | 18 -fold shift

Same assay, conditions: test substance 10 μM; carbachol EC50 without / with test substance; CHO-K1 cells expressing human M3

Compound | muscarinic M3 receptor-positive allosteric modulator activity, 10 μM (-fold shift)
C[C@@H]1CCCN1Cc1sc(NC(=O)c2cnc(N3CCN(CCC(=O)[O-])CC3)cn2)nc1-c1cc(C#N)cc(C(F)(F)F)c1.[Na+] [Example 34] | 116 -fold shift

Each molecule was assayed against T1, human c-Mpl-introduced Ba/F3 cell (Homo sapiens, UniProt P40238) (assay: Test Example 2: human c-Mpl-introduced Ba/F3 cell proliferative activity). Conditions: concentration exhibiting 30% proliferation; 100% = positive control (Example 315 of Patent Document 1) at 1 μM.
T1 construct: expressed in transfected cells
T1 sequence (P40238 26-635): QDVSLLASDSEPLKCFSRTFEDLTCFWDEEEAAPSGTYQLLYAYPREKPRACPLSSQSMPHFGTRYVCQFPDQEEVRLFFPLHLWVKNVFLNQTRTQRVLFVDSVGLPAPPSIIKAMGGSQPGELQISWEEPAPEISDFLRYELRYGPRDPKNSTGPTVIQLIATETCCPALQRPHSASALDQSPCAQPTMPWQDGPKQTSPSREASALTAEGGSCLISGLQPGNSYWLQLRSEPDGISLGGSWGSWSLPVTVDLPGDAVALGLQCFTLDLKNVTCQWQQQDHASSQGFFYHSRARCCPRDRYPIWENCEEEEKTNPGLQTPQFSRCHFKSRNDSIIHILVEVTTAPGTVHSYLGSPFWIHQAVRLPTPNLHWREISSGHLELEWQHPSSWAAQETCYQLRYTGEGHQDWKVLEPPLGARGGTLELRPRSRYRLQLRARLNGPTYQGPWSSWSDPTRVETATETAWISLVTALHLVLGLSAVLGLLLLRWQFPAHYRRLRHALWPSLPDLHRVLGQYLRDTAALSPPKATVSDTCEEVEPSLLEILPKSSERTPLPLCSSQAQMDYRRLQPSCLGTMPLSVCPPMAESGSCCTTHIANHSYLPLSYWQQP
Format: cell-based
Protocol: Test Example 2: Evaluation of Human c-Mpl-Introduced Ba/F3 Cell Proliferative Activity
The human c-Mpl-introduced Ba/F3 cell proliferation action was measured by the following method.
As a positive control, 1-(5-{[4-(4-chlorothiophen-2-yl)-5-{[(2R)-2-methylpyrrolidin-1-yl]methyl}-1,3-thiazol-2-yl]carbamoyl}-3-fluoropyridin-2-yl)piperidine-4-carboxylic acid hydrochloride disclosed as Example 315 in Patent Document 1, represented by the formula (A1) above, was used. Further, it is known that the compound has a good human c-Mpl-introduced Ba/F3 cell proliferative activity as disclosed in Table 1 in Patent Document 1.
a) Construction of Vector Expressing Human c-Mpl Receptor
A human c-Mpl receptor gene (GenBank Accession No.: M90102.1) was transfected into an expression vector pEF-BOS (Nucleic Acids Research, 18: pp 5322 (1990)).
b) Construction of Cell Stably Expressing Human c-Mpl Receptor
A vector expressing a human c-Mpl receptor was introduced into a Ba/F3 cell (RIKEN BRC: RCB0805). For the introduction, an electroporation method was used. pEF-BOS-c-mpl (10 μg), pSV2bsr (1 μg, Kaken Pharmaceutical Co., Ltd.) and 1×10^7 of Ba/F3 cells were put into cuvettes with a gap width of 0.4 cm and electroporated under a condition of 1.5 kV (25 μF) in a Gene Pulser (registered trademark) (BioRad). The cells were incubated in an RPMI-1640 medium supplemented with a 0.5% WEHI conditioned medium (BD Biosciences) and 10% fetal bovine serum for 3 days, and thereafter, and the cells were incubated for 30 days in an RPMI-1640 medium, to which 10 μg/mL blasticidin had been further added, thereby acquiring a drug-resistant clone.
c) Measurement of Cell Proliferative Activity
The cells obtained in b) above were dispensed into an RPMI-1640 medium supplemented with a 0.5% WEHI conditioned medium and 10% fetal bovine serum, and used. The day before the experiment, the test substances (final concentration of 100 nM to 10 μM) which had been dissolved in a medium for assay (an RPMI-1640 medium supplemented with 10% fetal bovine serum) were added to a 384-well plate (Model No. 781185, Greiner bio-one). The cells after the medium had been replaced with the medium for assay were dispensed to a 384-well plate to which the test substance had been added, to 1×10^4 cells/well, and incubated overnight at 37° C. and 5% CO2. On the experiment day, a solution of a Cell counting kit (Dojindo Laboratories) was added to each well of the 384-well plate, and the cells were incubated for about 5 hours at 37° C. and 5% CO2. Thereafter, the absorbance (an absorbance wavelength of 450 nm) of each well was measured using Safire^2 (registered trademark) (TECAN), and used as an index for the number of cells. Further, as a negative control, a well to which the test substances had not been added was prepared.
By taking the absorbance of the well to which the test substance had been not added as 0% and taking the absorbance in a case where the positive control had been added to a final concentration of 1 μM as 100%, a cell proliferation rate (%) was calculated from the absorbance of the well to which the test substance had been added.

Compound | human c-Mpl-introduced Ba/F3 cell proliferative activity EC30 [µM]
C[C@@H]1CCCN1Cc1sc(NC(=O)c2cnc(N3CCN(CCC(=O)O)C[C@H]3C)cn2)nc1-c1cc(C(F)(F)F)cs1 [Example 3, 3-[(3R)-3-methyl-4-{5-[(5-{[(2R)-2-methylpyrrolidin-1-yl]methyl}-4-[4-(trifluoromethyl)thiophen-2-yl]-1,3-thiazol-2-yl)carbamoyl]pyrazin-2-yl}piperazin-1-yl]propanoic acid dihydrochloride] | 0.78
COc1ccc(-c2nc(NC(=O)c3cnc(N4CCN(CCC(=O)O)[C@@H](C)C4)cn3)sc2CN2CCC[C@H]2C)cc1C(F)(F)F [Example 10] | >10
C[C@@H]1CCCN1Cc1sc(NC(=O)c2cnc(N3CCN(CCC(=O)O)CC3)cn2)nc1-c1cc(Cl)cc(C(F)(F)F)c1 [Example 11] | >10
C[C@@H]1CCCN1Cc1sc(NC(=O)c2cnc(N3CCN(CC(=O)O)CC3)cn2)nc1-c1cc(Cl)cc(C(F)(F)F)c1 [Example 13] | >10
C[C@@H]1CCCN1Cc1sc(NC(=O)c2cnc(N3CCN(CCC(=O)O)CC3)cn2)nc1-c1ccc(Cl)c(C(F)(F)F)c1 [Example 15] | >10
C[C@@H]1CCCN1Cc1sc(NC(=O)c2cnc(N3CCN(CCCC(=O)O)CC3)cn2)nc1-c1cc(F)cc(C(F)(F)F)c1 [Example 21] | >10
CC[C@@H]1CCCN1Cc1sc(NC(=O)c2cnc(N3CCN(CCC(=O)O)C[C@@H]3C)cn2)nc1-c1cc(Cl)cs1 [Example 28] | 5.3
C[C@@H]1CCCN1Cc1sc(NC(=O)c2cnc(N3CCN(CCC(=O)[O-])CC3)cn2)nc1-c1cc(C#N)cc(C(F)(F)F)c1.[Na+] [Example 34] | >10
CC[C@@H]1CCCN1Cc1sc(NC(=O)c2cnc(N3CCN(CCC(=O)O)CC3)cn2)nc1-c1ccc(OC)c(C(F)(F)F)c1 [Example 42] | >10
COc1c(Cl)cc(-c2nc(NC(=O)c3cnc(N4CCN(CCC(=O)O)CC4)cn3)sc2CN2CCC[C@H]2C)cc1Cl [Example 43] | >10
Cc1cc(OC(F)(F)F)cc(-c2nc(NC(=O)c3cnc(N4CCN(CCC(=O)O)CC4)cn3)sc2CN2CCC[C@H]2C)c1 [Example 46] | >10
Cc1cc(OC(F)(F)F)cc(-c2nc(NC(=O)c3cnc(N4CCN(C(C)C(=O)O)CC4)cn3)sc2CN2CCC[C@H]2C)c1 (stereo partly shown) [Example 48] | >10
C[C@@H]1CCCN1Cc1sc(NC(=O)c2cnc(N3CCN(CCC(=O)O)CC3)cn2)nc1-c1cc(F)cc(C(F)(F)F)c1 [Example 49] | >10
C[C@@H]1CCCN1Cc1sc(NC(=O)c2cnc(N3CCN(CCC(=O)O)CC3)cn2)nc1-c1cc(Cl)cs1 [Example 50] | 2.3
C[C@@H]1CCCN1Cc1sc(NC(=O)c2cnc(N3CCN(CC(=O)O)CC3)cn2)nc1-c1cc(Cl)cs1 [Example 51] | 2.6
COc1cc(-c2nc(NC(=O)c3cnc(N4CCN(CCC(=O)O)CC4)cn3)sc2CN2CCC[C@H]2C)cc(C(F)(F)F)c1 [Example 52] | >10

Compound | human c-Mpl-introduced Ba/F3 cell proliferative activity EC30 [µM]
C[C@@H]1CCCN1Cc1sc(NC(=O)c2cnc(N3CCN(CCC(=O)O)CC3)cn2)nc1-c1ccc(F)c(C(F)(F)F)c1 [Example 60] | 9.7
C[C@@H]1CCCN1Cc1sc(NC(=O)c2cnc(N3CCN(CC(=O)O)CC3)cn2)nc1-c1ccc(F)c(C(F)(F)F)c1 [Example 61] | 1.3
CC(C(=O)O)N1CCN(c2cnc(C(=O)Nc3nc(-c4cc(F)cc(C(F)(F)F)c4)c(CN4CCC[C@H]4C)s3)cn2)CC1 (stereo partly shown) [Example 64] | >10
CC[C@@H]1CCCN1Cc1sc(NC(=O)c2cnc(N3CCN(CCC(=O)O)CC3)cn2)nc1-c1cccc(C(F)(F)F)c1 [Example 65] | >10
C[C@@H]1CCCN1Cc1sc(NC(=O)c2cnc(N3CCN(CCC(=O)O)CC3)cn2)nc1-c1cc(C2CC2)cc(C(F)(F)F)c1 [Example 67] | >10
COc1c(F)cc(-c2nc(NC(=O)c3cnc(N4CCN(CCC(=O)O)CC4)cn3)sc2CN2CCC[C@H]2C)cc1C(F)(F)F [Example 72] | >10
C[C@@H]1CCCN1Cc1sc(NC(=O)c2cnc(N3CCN(CCC(=O)O)CC3)cn2)nc1-c1cc(Cl)cs1 [Example 82] | >10
C[C@@H]1CCCN1Cc1sc(NC(=O)c2cnc(N3CCN(CCC(=O)O)[C@@H](C)C3)cn2)nc1-c1cc(C(F)(F)F)cs1 [Example 95] | 3
CCN(CC)Cc1sc(NC(=O)c2cnc(N3CCN(CCC(=O)O)CC3)cn2)nc1-c1cc(F)cc(C(F)(F)F)c1 [Example 109] | >10
C[C@@H]1CC[C@@H](C)N1Cc1sc(NC(=O)c2cnc(N3CCN(CCC(=O)O)CC3)cn2)nc1-c1cc(F)cc(C(F)(F)F)c1 [Example 119] | >10
CCOc1ccc(-c2nc(NC(=O)c3cnc(N4CCN(CCC(=O)O)C[C@H]4C)cn3)sc2CN2CCC[C@H]2CC)cc1C(F)(F)F [Example 133] | >10
CC[C@@H]1CCCN1Cc1sc(NC(=O)c2cnc(N3CCN(CCC(=O)O)C[C@H]3C)cn2)nc1-c1ccc(OC(C)C)c(C(F)(F)F)c1 [Example 135] | >10
C[C@@H]1CCCN1Cc1sc(NC(=O)c2cnc(N3CCN(CCC(=O)O)C[C@H]3C)cn2)nc1-c1cc(F)cc(C(F)(F)F)c1 [Example 140] | >10
C[C@@H]1CCCN1Cc1sc(NC(=O)c2cnc(N3CCN(CC(=O)O)C[C@H]3C)cn2)nc1-c1cc(F)cc(C(F)(F)F)c1 [Example 141] | >10
C[C@@H]1CCCN1Cc1sc(NC(=O)c2cnc(N3CCN(CCC(=O)O)[C@@H](C)C3)cn2)nc1-c1cc(Cl)cs1 [Example 142] | 4.7
CC[C@@H]1CCCN1Cc1sc(NC(=O)c2cnc(N3CCN(CCC(=O)O)[C@H](C)C3)cn2)nc1-c1cc(Cl)cs1 [Example 143] | 7.8
